Values joined by “and” are separate entries in the source; they are usually repeats but may differ in a detail not shown here. Identical values can stand only once. “Also recorded” adds a separate entry of the source.

For test [1], the target named is VQIVYK (peptide derived from third microtubule binding repeat of tau) (Homo sapiens, UniProt P10636). The test can be described thus: In vitro VQIVYK (tau-like) aggregation assay, Thioflavin S. It counts as biochemical. As to conditions: peptides 10^−17 M -10^−9 M; 100 μM VQIVYK, polyglutamate 250 μM, MOPS pH 6.5, 7 days; compared with NAP. How it is done: VQIVYK aggregation: Tau is a highly soluble protein. The unfolded protein lacks a defined 3D structure. Its main role is stabilization of microtubules in neuronal axons. Tau contains three or four microtubule binding repeats. ^306VQIVYK^311 is a peptide derived from the beginning of the third microtubule binding repeat of tau, which is present in all tau variants.
In vitro aggregation assay was performed in the presence of polyglutamic acid (or heparin), VQIVYK aggregates were further detected by Thioflavin S (excitation 485 nm and emission 535) with emission intensity greatly increasing.
First, different concentrations of polyglutamic acid (0,100 μM, 250 μM, 400 μM) VQIVYK and either […] (NH4Ac) 50 mM pH 6.5 or MOPS 20 mM pH 6.5 and Thioflavin S 5 μM were mixed together and incubated at room temperature. The extent of aggregation was read at excitation 485 nm and emission 535 nm using the infinite 200 system with the Magellan program.
In order to avoid reading self peptide aggregation as VQIVYK aggregation, for each peptide concentration, the fluorescence of the peptide solution without VQIVYK was subtracted from the fluorescence of each peptide concentration containing VQIVYK.

Test [2] has as its system rTg(tauP301L)4510 mouse (Tau-Tg). Briefly: Morris water maze in Tau transgenic mice. The test is classed as in vivo. The following applies: Tau-Tg female mice, intranasal NAT 2 μg/5 μl/mouse/day; p=0.039. How it is done:
The mouse model, used in the current study, was previously described (Ramsden et al., (2005) J Neurosci, 25, 10637-10647). The rTg(tauP301L)4510 mouse (designated as Tau-Tg below) expresses the human 4-repeat Tau with the P301L mutation (4RON) associated with frontotemporal dementia and Parkinsonism linked to chromosome 17.
The experiment included three groups: Tau-Tg female mice, 10-month-old, treated by intranasal administration of NAT 2 μg/5 μl/mouse/day (n=5) or vehicle (SW/mouse/day) (n=6), and as control, non-Tg female littermates treated by vehicle (SW/mouse/day) (n=7).
NAT was dissolved in a vehicle solution, in which each milliliter include 7.5 mg of NaCl, 1.7 mg of citric acid monohydrate, 3 mg of disodium phosphate dehydrate, and 0.2 mg of benzalkonium chloride solution (50%). 5 μl of NAT or vehicle solution (DD) were administered intranasally.
Treatment started at 9 months of age and continued daily for a period of 5 weeks. At each test NAT was applied 1 h before the test begun.
Each mouse was placed in a pool of water that is colored opaque with powdered non-fat milk, where it must swim to a hidden escape platform. […]
Experimental procedure: Mice were treated with NAT or vehicle and then habituated for 1 hour in the experiment room. […] The time required for reaching the platform in each trial and the path lengths were measured. […]

Test [3] relates to cerebral cortical astrocytes intoxicated with ZnCl2. The test can be described thus: MTS assay: survival of astrocytes following intoxication with ZnCl2. The test is classed as cell-based, mice. How it is done: Cell cultures were prepared as previously described (McCarthy KD, de Vellis J., J. Cell Biol., 85:890-902 (1980); Gozes I et al., J. Pharmacol. Exp. Ther., 257:959-66 (1991)). Newborn mice (Harlan Biotech Israel Ltd., Rehovot, Israel) were sacrificed by decapitation and the brain was removed. The cortex was dissected and meninges were removed. The tissue was minced with scissors and placed in Hank's balanced salts solution X1 (HBSS, Biological Industries, Beit Haemek, Israel), 15 mM HEPES Buffer pH 7.3 (Biological Industries, Beit Haemek, Israel) and 0.25% trypsin (Biological Industries, Beit Haemek, Israel) in an incubator at 37° C. 10% CO2 for 20 minutes. The cells were then placed in 8 ml of solution D1 containing 10% heat inactivated fetal calf serum (Biological Industries, Beit Haemek, Israel), 0.1% gentamycin sulphate solution (Biological Industries, Beit Haemek, Israel) and 0.1% penicillin-streptomycin-nystatin solution (Biological Industries, Beit Haemek, Israel) in Dulbecco's modified Eagle's medium (DMEM, Sigma, Rehovot, Israel). The cells were allowed to settle, and were then transferred to a new tube containing 2.5 ml of D1 and triturated using a Pasteur pipette. The process was repeated twice more. Once all the cells were suspended, cell density was determined using a hemocytometer (Neubauer improved, Germany) and 1×10^6 cells/15 ml D1 were inoculated into each 75 cm^2 flask (Corning, Corning, N.Y., USA). Cells were incubated at 37° C. 10% CO2. The medium was changed after 24 hours and cells were grown until confluent (one week).
The flasks containing the cerebral cortical astrocytes were shaken to dislodge residual neurons and oligodendrocytes that may be present. Flasks were then washed with 10 ml cold HBSSx1, HEPES15 mM. 5 ml versene-trypsin solution (BioLab, Jerusalem, Israel) was added to each flask and the flasks were incubated at room temperature for 5 minutes to remove astrocytes. The flasks were then shaken to dislodge the cells. The versene-trypsin solution was neutralized with 5 ml D1. The cell suspension was collected and centrifuged at 100 g for 10 minutes. The supernatant was removed and the cells resuspended in D1. The cells were plated in 96 well plates (Corning, Corning, N.Y., USA) (each flask to 2 plates) and incubated until confluent at 37° C. 10% CO2.
The survival of astrocytes following intoxication with ZnCl2 was tested using the MTS assay. One week after sub-culturing the astrocytes into 96-well plates, the astrocyte growth medium was aspirated and fresh medium containing 200μM ZnCl2 and ascending concentrations of NATLSHIHQ (SEQ ID NO:4) or STPTAIPQ (SEQ ID NO:6)(concentration range: 10^−16-10^−7M) was added to the cells. The cells were incubated for 4 hours in 10% CO2 at 37°C., followed by an MTS assay using Celltiter 96 Aqueous non-radioactive cell proliferation assay (Promega, Madison, WI, USA) which was performed according to the manufacturer's instructions and read in an ELISA plate reader at 490nm.

For NATLSIHQ (synthetic NAP-like peptide), the “inhibition of VQIVYK (tau) aggregation” value in test [1] is recorded as “superior to NAP; also recorded: superior effect than NAPVSIPQ”. Also, the “improvement in learning: latency to find the hidden platform, first day vs fifth day, second daily trial” value in test [2] was “Significant improvement”. For the same sequence, the “effective concentrations on astrocyte survival: Astrocytes (200 μM ZnCl2)” value in test [3] (MTS assay, 4 hours, tested 10^−16-10^−7M, significance vs negative control in cell) is 10^−12 M and 10^−8 M and 10^−7 (p < 0.0005) M and 10^−10 (p < 0.05) M. Also, the “activity in neuroprotection assay” value in test [3] (astrocytes, ZnCl2) was “active”. The “efficacy compared between peptides” value in test [3] (survival of astrocytes) is reported as “greater than that of STPTAIPQ”.

The values are drawn from US8324166B2, “Neuroprotection using NAP-like and SAL-like peptide mimetics” (Ramot at Tel-Aviv University, Ltd., priority 2007, dated 2012).
